Patent US20190248768A1, “METHOD FOR PURIFYING BENZOPYRAN DERIVATIVE, CRYSTAL FORM THEREOF, AND METHOD FOR PREPARING CRYSTAL FORM” (priority 2015, published 2019)

Assays:
Type in all cases: physicochemical
Thermal stability test = details: 100° C.
Protocol: (§1) In the following examples and experimental examples, the high performance liquid chromatography (HPLC) analyses were carried out under the following conditions: • Analytical column: C18, 4.6×250 mm, 5 μm • Mobile phase: buffer solution/acetonitrile=40/60 (v/v) • Buffer solution: ammonium formate (0.657 g) was taken and then added to a 1 L volumetric flask. Water was added thereto to the mark so as to dissolve ammonium formate and then the pH of the resulting solution was adjusted to pH 5.5±0.2 with a diluted formic acid. • Wavelength: 254 nm • Column temperature: 30° C. • Flow rate: 1.0 mL/min. • Injection volume: 10 μL
(§2) The X-ray powder diffraction (XRPD) analyses were carried out with the PANalytical's X-pert Pro X-ray powder diffractometer. The measurements at the angles ranging from 3 to 80°2θ values were performed at a scanning rate of 3° per second, using CuKα1 radiation (λα1=1.54060 Å) produced at the conditions of 40 mA and 40 kV.
The crystalline form A of the compound of Formula 1 obtained in Example 1 and the amorphous form of the compound of Formula 1 obtained in Preparation Example were stored at the heat-condition (100° C.) for 2 weeks, so as to evaluate the stabilities thereof.

[1] = Accelerated stability test
Protocol: as §1, §2
The crystalline form A of the compound of Formula 1 obtained in Example 1 and the amorphous form of the compound of Formula 1 obtained in Preparation Example were stored at the accelerated condition (40° C., 75% RH) for 2 weeks, so as to evaluate the stabilities thereof.

[2] = Stability test on humidity
Protocol: as §1, §2
The crystalline form A of the compound of Formula 1 obtained in Example 1 and the amorphous form of the compound of Formula 1 obtained in Preparation Example were stored at the humid condition (25° C., 98% RH) for 2 weeks, so as to evaluate the stabilities thereof.

SMILES | Purity (as an anhydrous form) (Thermal stability test; 2 weeks) | Water contents (Thermal stability test; 2 weeks) | Purity (as an anhydrous form) (Thermal stability test; Initial) | Water contents (Thermal stability test; Initial) | change in the appearance (Thermal stability test; during 2 weeks) | enantiomer during the test period (Thermal stability test; during 2 weeks) | Water contents ([1]; 40° C., 75% RH, 1 week) | Purity (as an anhydrous form) ([1]; 40° C., 75% RH, 2 weeks) | Water contents ([1]; 40° C., 75% RH, 2 weeks) | Water contents ([1]; 40° C., 75% RH, 1 day) | Water contents ([1]; 40° C., 75% RH, 2 days) | Purity (as an anhydrous form) ([1]; 40° C., 75% RH, Initial) | Water contents ([1]; 40° C., 75% RH, Initial) | Water contents ([2]; 25° C., 98% RH, 1 week) | Purity (as an anhydrous form) ([2]; 25° C., 98% RH, 2 weeks) | Water contents ([2]; 25° C., 98% RH, 2 weeks) | Water contents ([2]; 25° C., 98% RH, 1 day) | Water contents ([2]; 25° C., 98% RH, 2 days) | Purity (as an anhydrous form) ([2]; 25° C., 98% RH, Initial) | Water contents ([2]; 25° C., 98% RH, Initial) | also measured
COC(OC)[C@]1(C)Oc2ccc(N)cc2[C@H](N(Cc2ncc[nH]2)c2ccc(Cl)cc2)[C@H]1O [amorphous form of the compound of Formula 1] [(2R,3R,4S)-6-amino-4-[N-(4-chlorophenyl)-N-(1H-imidazol-2-ylmethyl)amino]-3-hydroxy-2-methyl-2-dimethoxymethyl-3,4-dihydro-2H-1-benzopyran] | 92.34% | 0.34% | 96.96% | 1.05% | changed to brown color from the first day | no enantiomer was detected | 2.52% | 96.72% | 2.60% | 2.30% | 2.64% | 96.96% | 1.05% | 3.90% | 96.55% | 3.58% | 3.20% | 3.60% | 96.96% | 1.05% | water contents over the storing time ([1]; 40° C., 75% RH, during 2 weeks): up to 2.64%; hygroscopicity ([1]; accelerated condition (40° C., 75% RH)): very high hygroscopicity; Water contents ([1]; accelerated condition, in 1 day): 2.30 wt/wt %; enantiomer during the test period ([2]; 25° C., 98% RH, during 2 weeks): no enantiomer was detected; water contents over the storing time ([2]; 25° C., 98% RH, during 2 weeks): up to 3.90%; hygroscopicity ([2]; humid condition (25° C., 98% RH)): very high hygroscopicity
COC(OC)[C@]1(C)Oc2ccc(N)cc2[C@H](N(Cc2ncc[nH]2)c2ccc(Cl)cc2)[C@H]1O [crystalline form A of the compound of Formula 1] [(2R,3R,4S)-6-amino-4-[N-(4-chlorophenyl)-N-(1H-imidazol-2-ylmethyl)amino]-3-hydroxy-2-methyl-2-dimethoxymethyl-3,4-dihydro-2H-1-benzopyran] | 99.25% | 0.11% | 99.43% | 0.16% | changed to pale yellow color from the first week | no enantiomer was detected | 0.17% | 99.34% | 0.18% | 0.18% | 0.18% | 99.43% | 0.16% | 0.29% | 99.32% | 0.27% | 0.21% | 0.24% | 99.43% | 0.16% | XRPD analyses, crystalline form maintained (Thermal stability test; during 2 weeks): the same crystalline form A was maintained; XRPD analyses, crystalline form maintained ([1]; 40° C., 75% RH, during 2 weeks): the same crystalline form A was maintained; change in the appearance ([1]; 40° C., 75% RH, during 2 weeks): without any change in the appearance; enantiomer during the test period ([1]; 40° C., 75% RH, during 2 weeks): no enantiomer was detected; XRPD analyses, crystalline form maintained ([2]; 25° C., 98% RH, during 2 weeks): the same crystalline form A was maintained; change in the appearance ([2]; 25° C., 98% RH, during 2 weeks): without any change in the appearance; enantiomer during the test period ([2]; 25° C., 98% RH, during 2 weeks): no enantiomer was detected
